The values that follow come from US20260365628A1, “SUBSTITUTED 3,4-DIHYDROQUINOLINONE INHIBITORS OF TSHR” (Septerna, Inc., priority 2022, published 2026).

The experiment has as its target T1, hTSHR (Homo sapiens, UniProt P16473).
T1 construct: expressed in transfected cells
Kind of experiment: hTSHR TR-FRET cAMP Assay (inhibition of M22-stimulated cAMP production). To be noted: Expi293F Inducible cells stably expressing hTSHR; cAMP HTRF; stimulated with EC80 of anti-TSHR antibody M22; 15 min compound preincubation, 30 min at 37° C.; read-out: Activity (IC50 bins). The format is cell-based. Summed up:
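Readout was a cAMP HTRF ratio of 655/620 nm after lysis, scaled between the EC80 M22 signal (0% inhibition) and no-agonist vehicle (100%). Frozen induced Expi293F-hTSHR cells saw test compounds (0.5% DMSO) for 15 min at 37 °C before 30 min of M22 stimulation at EC80.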

T1 sequence (P16473 21-764): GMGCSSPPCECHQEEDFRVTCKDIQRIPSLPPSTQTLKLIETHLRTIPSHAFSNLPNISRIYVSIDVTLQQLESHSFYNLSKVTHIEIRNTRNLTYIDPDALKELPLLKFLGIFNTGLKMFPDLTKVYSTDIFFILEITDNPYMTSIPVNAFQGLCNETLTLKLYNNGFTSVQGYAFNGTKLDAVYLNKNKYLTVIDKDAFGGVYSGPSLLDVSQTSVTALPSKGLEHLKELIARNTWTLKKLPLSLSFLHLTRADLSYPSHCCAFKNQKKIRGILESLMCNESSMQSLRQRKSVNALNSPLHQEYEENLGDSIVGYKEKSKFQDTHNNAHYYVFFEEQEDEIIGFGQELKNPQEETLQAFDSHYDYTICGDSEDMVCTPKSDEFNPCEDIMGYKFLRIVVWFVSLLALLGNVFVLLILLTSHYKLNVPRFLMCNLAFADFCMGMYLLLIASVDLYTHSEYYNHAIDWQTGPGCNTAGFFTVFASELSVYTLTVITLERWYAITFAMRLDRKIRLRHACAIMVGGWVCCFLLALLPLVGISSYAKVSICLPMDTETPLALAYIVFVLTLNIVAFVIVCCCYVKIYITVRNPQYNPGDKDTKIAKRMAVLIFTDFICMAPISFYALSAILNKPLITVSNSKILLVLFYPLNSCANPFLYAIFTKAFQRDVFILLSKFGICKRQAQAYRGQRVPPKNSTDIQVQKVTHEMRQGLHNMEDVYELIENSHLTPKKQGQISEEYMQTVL

The term IC50 denotes the concentration needed to halve the response being measured. In the case of `C[C@@H](c1cccc(Cl)c1)n1c(=O)cnc2cc(NC(=O)NC(C)(C)C)c(F)cc21` [Example 357, (S)-1-(tert-butyl)-3-(1-(1-(3-chlorophenyl)ethyl)-7-fluoro-2-oxo-1,2-dihydroquinoxalin-6-yl) Urea], the IC50 was in the range of 100 to 1000 nM.
`C[C@@H](c1ccccc1)N1C(=O)CCc2cc(NC(=O)NC(C)(C)C)c(C(F)(F)F)cc21` [Example 343, (S)-1-(tert-butyl)-3-(2-oxo-1-(1-phenylethyl)-7-(trifluoromethyl)-1,2,3,4-tetrahydroquinolin-6-yl) urea]: the IC50 was less than 100 nM.
Take `C[C@@H](c1cccc(OC(F)(F)F)c1)n1c(=O)cnc2cc(NC(=O)NC3CCC(F)(F)CC3)ccc21` [Example 216]: the IC50 lay within 100 to 1000 nM.
Under `CC(C)CCc1cccc([C@H](C)n2c(=O)cnc3cc(NC(=O)NC(C)(C)C)ccc32)c1` [Example 107, (S)-1-(tert-butyl)-3-(1-(1-(3-isopentylphenyl)ethyl)-2-oxo-1,2-dihydroquinoxalin-6-yl)urea] stands 100 to 1000 nM; under `CC(c1cccc2ncccc12)n1c(=O)cnc2cc(NC(=O)NC(C)(C)C)ccc21` (centres unmarked) [Example 252, 1-(tert-butyl)-3-(2-oxo-1-(1-(quinolin-5-yl)ethyl)-1,2-dihydro-quinoxalin-6-yl)urea], more than 1000 nM; under `C[C@H]1Oc2cc(NC(=O)NC3(C)CCC3)ccc2N([C@@H](C)c2ccccc2)C1=O` [Example 255, 1-((R)-2-methyl-3-oxo-4-((S)-1-phenylethyl)-3,4-dihydro-2H-benzo[b][1,4]oxazin-7-yl)-3-(1-methylcyclobutyl)urea], less than 100 nM.
Turning to `C[C@@H](c1cccc(OC(F)(F)F)c1)n1c(=O)cnc2cc(NC(=O)NC3(C(F)(F)F)CC(F)(F)C3)ccc21` [Example 225, (S)-1-(3,3-difluoro-1-(trifluoromethyl)cyclobutyl)-3-(2-oxo-1-(1-(3-(trifluoromethoxy)phenyl)ethyl)-1,2-dihydroquinoxalin-6-yl)urea], the IC50 is 100 to 1000 nM.
Under `CC(C)(C)NC(=O)Nc1ccc2c(c1)OCC(=O)N2Cc1cccc2cn[nH]c12` [Example 76, 1-(4-((1H-indazol-7-y1)methyl)-3-oxo-3,4-dihydro-2H-benzo[b][1,4]oxa-zin-7-yl)-3-(tert-butyl)urea] stands more than 1000 nM; under `C[C@@H](c1cccc(OC(F)(F)F)c1)n1c(=O)cnc2cc(NC(=O)NC3(C)CCC3)ccc21` [Example 200, (S)-1-(1-methylcyclobutyl)-3-(2-oxo-1-(1-(3-(trifluoromethoxy)phenyl)ethyl)-1,2-dihydroquinoxalin-6-yl)urea], less than 100 nM; under `C[C@@H](c1ccccc1)N1C(=O)N(C)Cc2cc(NC(=O)NC(C)(C)C)ccc21` [Example 45, 3-tert-butyl-1-{3-methyl-2-oxo-1-[(1S)-1-phenylethyl]-4H-quinazolin-6-yl}urea], less than 100 nM.
Consider `O=C(Nc1ccc2c(c1)ncc(=O)n2Cc1ccccc1)NC1CCCC1` [Example 196, 1-(1-benzyl-2-oxo-1,2-dihydroquinoxalin-6-yl)-3-cyclopentylurea], for which the IC50 was more than 1000 nM.
The result for `CCC(c1ccccc1)N1C(=O)CCc2cc(NC(=O)NC(C)(C)C)ccc21` (centres unmarked) [Example 28, 1-(tert-butyl)-3-(2-oxo-1-(1-phenylpropyl)-1,2,3,4-tetrahydroquinolin-6-yl)urea] reads more than 1000 nM; that for `C[C@H]1Oc2cc(NC(=O)NC3(C)CCCC3)ccc2N([C@@H](C)c2cccc(OC(F)(F)F)n2)C1=O` [Example 323, 1-((R)-2-methyl-3-oxo-4-((S)-1-(6-(trifluoromethoxy)pyridin-2-yl)ethyl)-3,4-dihydro-2H-benzo[b][1,4]oxazin-7-yl)-3-(1-methylcyclopentyl)urea], less than 100 nM.
For `CC(C)(C)NC(=O)Nc1ccc2c(c1)CCC(=O)N2Cc1ccccc1` [Example 1, 1-(1-benzyl-2-oxo-1,2,3,4-tetrahydroquinolin-6-yl)-3-(tert-butyl)urea], the IC50 is less than 100 nM.
